# From ChEMBL document CHEMBL6096737, “Discovery of Pyrrolopyrazine Carboxamide Derivatives as Potent and Selective FGFR2/3 Inhibitors that Overcome Mutant Resistance” (J Med Chem, 2025)
# Experiments:
# [1] = in vivo; settings: female, CD-1, mouse, plasma, iv, 1 mg/kg
# [2] = in vivo; settings: female, CD-1, mouse, po, 10 mg/kg
# [3] = in vivo; settings: female, CD-1, mouse, po, 10 mg/kg; remark: listed apart in the source
# [4] = in vitro; settings: human, plasma
# [5] = physchem; settings: glutathione (GSH) solution, 0.1 uM GSH
# [6] = physchem; settings: glutathione (GSH) solution, 1 uM GSH
# [7] = in vivo; settings: female, CD-1, mouse, po, 10 mg/kg; remark: listed apart in the source
# [8] = in vivo; settings: female, CD-1, mouse, po, 10 mg/kg; remark: listed apart in the source
# [9] = in vivo; settings: female, CD-1, mouse, po, 10 mg/kg; remark: listed apart in the source
# [10] = in vivo; settings: male, Sprague-Dawley, rat, plasma, iv, 1 mg/kg
# [11] = in vivo; settings: male, Sprague-Dawley, rat, po, 10 mg/kg
# [12] = in vivo; settings: male, Sprague-Dawley, rat, po, 10 mg/kg; remark: listed apart in the source
# [13] = in vivo; settings: male, Sprague-Dawley, rat, po, 10 mg/kg; remark: listed apart in the source
# [14] = in vivo; settings: male, Sprague-Dawley, rat, po, 10 mg/kg; remark: listed apart in the source
# [15] = in vivo; settings: male, Sprague-Dawley, rat, po, 10 mg/kg; remark: listed apart in the source
# [16] = in vivo; settings: male, Beagle, dog, plasma, iv, 1 mg/kg
# [17] = in vivo; settings: male, Beagle, dog, po, 5 mg/kg
# [18] = in vivo; settings: male, Beagle, dog, po, 5 mg/kg; remark: listed apart in the source
# [19] = in vivo; settings: male, Beagle, dog, po, 5 mg/kg; remark: listed apart in the source
# [20] = in vivo; settings: male, Beagle, dog, po, 5 mg/kg; remark: listed apart in the source
# [21] = in vivo; settings: male, Beagle, dog, po, 5 mg/kg; remark: listed apart in the source
# [22] = in vivo; settings: female, Balb/c, mouse, po, 10 mg/kg
# [23] = in vivo; settings: female, Balb/c, mouse, po, 10 mg/kg; remark: listed apart in the source
# [24] = in vivo; settings: female, Balb/c, mouse, po, 10 mg/kg; remark: listed apart in the source
compound,measurement,setting,value
C=C(F)C(=O)Nc1ccc(-c2c(-c3ccc(Oc4nccc(C)n4)cc3)c(C(N)=O)c3cnc(C)cn23)c(F)c1,clearance at 24 h,[1],29.1 mL/min/kg
same,AUC(0-t) at 24 h,[2],2470 ng·h/mL
same,bioavailability at 24 h,[3],41.9%
same,half-life,[4],> 289 min
C=C(CO)C(=O)Nc1ccc(-c2c(-c3ccc(Oc4nccc(C)n4)cc3)c(C(N)=O)c3cnc(C)cn23)cc1,half-life,[5],48 min
same,half-life,[6],54 min
C=C(C)C(=O)Nc1ccc(-c2c(-c3ccc(Oc4nccc(C)n4)c(F)c3)c3c(N)ncnc3n2C)cc1 [LIRAFUGRATINIB],MRT last at 24 h,[7],2 h
same,Cmax at 24 h,[8],5760 ng/mL
same,half-life at 24 h,[9],144 min
same,clearance at 24 h,[10],59.4 mL/min/kg
same,MRT last at 24 h,[11],13.8 min
same,Cmax at 24 h,[12],111 ng/mL
same,AUC(0-t) at 24 h,[13],448 ng·h/mL
same,half-life at 24 h,[14],46.2 min
same,bioavailability at 24 h,[15],16%
same,clearance at 24 h,[16],24.9 mL/min/kg
same,MRT last at 24 h,[17],52.2 min
same,Cmax at 24 h,[18],1360 ng/mL
same,AUC(0-t) at 24 h,[19],2680 ng·h/mL
same,half-life at 24 h,[20],138 min
same,bioavailability at 24 h,[21],75.4%
same,MRT last at 8 h,[22],2.7 h
same,Cmax at 8 h,[23],3740 ng/mL
same,AUC(0-t) at 8 h,[24],20000 ng·h/mL
same,half-life,[4],> 289 min
